From patent US11110082B2, “Tyrosine kinase inhibitors” (Rigel Pharmaceuticals, Inc., priority 2016, dated 2021)

Biological target: T1, MerTK (Homo sapiens, UniProt Q12866)
T1 construct: Seed HUVECs (10K cells/well) in EBM-2 complete media; host or cells: HUVEC (primary human umbilical vein endothelial cells)
T1 sequence (Q12866 21-999): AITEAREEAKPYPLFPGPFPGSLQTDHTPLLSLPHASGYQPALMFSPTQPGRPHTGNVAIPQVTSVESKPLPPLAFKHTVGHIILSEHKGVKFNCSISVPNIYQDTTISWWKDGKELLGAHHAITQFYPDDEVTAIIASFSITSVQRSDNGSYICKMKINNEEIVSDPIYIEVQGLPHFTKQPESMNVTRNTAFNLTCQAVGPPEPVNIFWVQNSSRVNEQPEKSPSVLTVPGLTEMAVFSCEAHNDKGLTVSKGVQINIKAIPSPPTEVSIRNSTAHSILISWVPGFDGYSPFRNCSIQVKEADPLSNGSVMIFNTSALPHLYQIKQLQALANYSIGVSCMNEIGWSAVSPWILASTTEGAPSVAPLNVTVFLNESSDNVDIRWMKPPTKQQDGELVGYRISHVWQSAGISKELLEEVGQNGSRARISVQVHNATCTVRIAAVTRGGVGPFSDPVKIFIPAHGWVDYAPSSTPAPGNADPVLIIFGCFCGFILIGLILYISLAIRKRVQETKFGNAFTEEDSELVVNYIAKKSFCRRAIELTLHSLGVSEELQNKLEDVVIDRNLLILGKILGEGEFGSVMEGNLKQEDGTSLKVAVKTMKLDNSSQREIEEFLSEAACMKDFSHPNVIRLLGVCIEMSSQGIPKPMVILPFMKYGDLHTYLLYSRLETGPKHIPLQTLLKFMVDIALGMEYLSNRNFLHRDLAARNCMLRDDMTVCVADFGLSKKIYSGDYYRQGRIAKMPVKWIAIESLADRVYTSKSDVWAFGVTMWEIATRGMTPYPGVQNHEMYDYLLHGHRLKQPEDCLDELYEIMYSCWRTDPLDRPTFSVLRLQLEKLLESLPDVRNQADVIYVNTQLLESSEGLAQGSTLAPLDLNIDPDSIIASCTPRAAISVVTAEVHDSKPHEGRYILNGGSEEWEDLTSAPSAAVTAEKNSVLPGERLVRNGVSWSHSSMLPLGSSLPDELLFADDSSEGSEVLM
Test: PAKT HTRF-HUVEC assay (pAkt Ser473 HTRF after anti-human MerTK-XL stimulation)
Format: cell-based
Conditions: HUVEC cells, 1 hour compound, stimulated with anti-human MerTK-XL 1 ug/mL for 10 minutes, read-out: inhibition of MerTK
Experimental: Example 4: PAKT HTRF-HUVEC Assay Phospho Akt (Ser473) Assay kit-10,000 tests (Cisbio US, 64[…]) HUVEC cells (Lonza, CC-2519) Anti-human MerTK antibody (Clone 125518) (R&D Systems, MAB8912) Method Seed HUVECs (10K cells/well) in EBM-2 complete media (EBM-2 basal medium plus EGM-2 BulletKit supplements) overnight at 37° C., 5% CO2 in Costar 96-well white clear-bottom plates. Remove culture media and starve cells for 3-4 hours in 50 μL/well EBM-2 basal medium. Perform serial dilution of compounds in DMSO from 2.5 mM in 4-fold dilutions, and then dilute 1:125 in EBM-2 basal media. Mix 50 μL/well 2x compounds with 50 μL/well HUVECs in duplicate in Costar 96-well white clear-bottom plates. Incubate plates for 1 hour at 37° C., 5% CO2. Cross-link anti-human MerTK antibody to Biotin-SP-conjugated anti-mouse IgG antibody (1:1) to give final concentrations of 5 ug/mL of anti-human MerTK-XL. Stimulate HUVECs with 25 μL/well 5x anti-human MerTK-XL to give final concentrations of 1 ug/mL for 10 minutes at 37° C., 5% CO2. Completely remove media and lyse HUVECs with 40 uL/WELL per well of Cisbio HTRF 1× lysis buffer. Performed pAkt(Ser473) HTRF assay in ProxiPlate-384 Plus, white 384-shallow well microplate according to the vendor protocol and read plates with a SpectralMax Paradigm plate reader. Enter the HTRF values into Athena (Rigel) for curve fitting, EC50 calculation, and database storage.

| Structure (SMILES) | EC50 [nM] |
| --- | --- |
| CCCCNc1ncc2c3ccc(CN4CCN(C)CC4)cc3c(=O)n([C@H]3CC[C@H](C(N)=O)CC3)c2n1 [Compound 131, trans-4-(3-(Butylamino)-8-((4-methylpiperazin-1-yl)methyl)-6-oxopyrimido[4,5-c]isoquinolin-5(6H)-yl)cyclohexane-1-carboxamide] | 54.6 |
| CN1CCN(Cc2ccc3c(c2)c(=O)n([C@H]2CC[C@H](O)CC2)c2nc(NC4CC4)ncc32)CC1 [Compound 196, trans-3-(Cyclopropylamino)-5-(4-hydroxycyclohexyl)-8-((4-methylpiperazin-1-yl)methyl)pyrimido[4,5-c]isoquinolin-6(5H)-one] | 240 |
| CCC1(CNc2ncc3c4ccc(N5CCN(C)CC5)cc4c(=O)n([C@H]4CC[C@H](O)CC4)c3n2)CCC1 [Compound 91, trans-3-(((1-Ethylcyclobutyl)methyl)amino)-5-(4-hydroxycyclohexyl)-8-(4-methylpiperazin-1-yl)pyrimido[4,5-c]isoquinolin-6(5H)-one] | 3910 |
| O=c1c2cc(CN3CCN(CC(F)(F)F)CC3)ccc2c2cnc(NCC3CC3)nc2n1[C@H]1CC[C@H](O)CC1 [Compound 152] | 50.7 |
| CCCCNc1ncc2c3ccc(N4CCN5CCC4CC5)cc3c(=O)n([C@H]3CC[C@H](O)CC3)c2n1 [Compound 81, trans-8-(1,4-Diazabicyclo[3.2.2]nonan-4-yl)-3-(butylamino)-5-(4-hydroxycyclohexyl)pyrimido[4,5-c]isoquinolin-6(5H)-one] | 13.9 |
| O=c1c2cc(N3CC4(COC4)C3)ccc2c2cnc(NC3CC(F)C3)nc2n1[C@H]1CC[C@H](O)CC1 (stereo partly drawn) [Compound 75, trans-3-((3-Fluorocyclobutyl)amino)-5-(4-hydroxycyclohexyl)-8-(2-oxa-6-azaspiro[3.3]heptan-6-yl)pyrimido[4,5-c]isoquinolin-6(5H)-one] | 1080 |
| O=c1c2cc(CN3CC[S+]([O-])CC3)ccc2c2cnc(NCC3CC3)nc2n1[C@H]1CC[C@H](O)CC1 [Compound 52, trans-3-((cyclopropylmethyl)amino)-5-(4-hydroxycyclohexyl)-8-((1-oxidothiomorpholino)methyl) pyrimido[4,5-c]isoquinolin-6(5H)-one] | 401 |
| CC(C)CNc1ncc2c3ccc(CN4CCN(C)CC4)cc3c(=O)n([C@H]3CC[C@H](O)CC3)c2n1 [Compound 130, trans-5-(4-hydroxycyclohexyl)-3-(isobutylamino)-8-((4-methylpiperazin-1-yl)methyl)pyrimido[4,5-c]isoquinolin-6(5H)-one] | 51.2 |
| O=c1c2cc(CN3CCN(CC(F)F)CC3)ccc2c2cnc(NCC3CC3)nc2n1[C@H]1CC[C@H](O)CC1 [Compound 153] | 51.3 |
| CCCCNc1ncc2c3ccc(CN4CCN(C)CC4)cc3c(=O)n([C@H]3CC[C@H](NC(=N)N)C3)c2n1 [Compound 239, 1-((1S,3 S)-3-(3-(butylamino)-8-((4-methylpiperazin-1-yl)methyl)-6-oxopyrimido[4,5-c]isoquinolin-5(6H)-yl)cyclopentyl)guanidine] | 947 |
| O=c1c2cc(CN3CCN(CC(F)F)CC3)ccc2c2cnc(NCC3CC3)nc2n1[C@H]1CC[C@H](O)CC1 [Compound 43, trans-3-((Cyclopropylmethyl)amino)-8-((4-(2,2-difluoroethyl)piperazin-1-yl)methyl)-5-(4-hydroxycyclohexyl)pyrimido[4,5-c]isoquinolin-6(5H)-one] | 51.3 |
| O=c1c2cc(CN3CCN(c4ccncc4)CC3)ccc2c2cnc(NCC3CC3)nc2n1[C@H]1CC[C@H](O)CC1 [Compound 194] | 33.6 |
| CCCCNc1ncc2c3ccc(CN4CCN(C)CC4)cc3c(=O)n([C@H]3CC[C@H](NCC(N)=O)C3)c2n1 [Compound 237, 2-(((1S,3S)-3-(3-(butylamino)-8-((4-methylpiperazin-1-yl)methyl)-6-oxopyrimido[4,5-c]isoquinolin-5(6H)-yl)cyclopentyl)amino)acetamide] | 220 |
| CCCCNc1ncc2c3ccc(CN4CCN(C)CC4)cc3c(=O)n([C@H]3CC[C@H](C(=O)O)CC3)c2n1 [Compound 132, trans-4-(3-(Butylamino)-8-((4-methylpiperazin-1-yl)methyl)-6-oxopyrimido[4,5-c]isoquinolin-5(6H)-yl)cyclohexane-1-carboxylic Acid] | 1550 |
| O=c1c2cc(CN3CCC(O)(c4ccncc4)CC3)ccc2c2cnc(NCC3CC3)nc2n1[C@H]1CC[C@H](O)CC1 [Compound 228, trans-3-((Cyclopropylmethyl)amino)-8-((4-hydroxy-4-(pyridin-4-yl)piperidin-1-yl)methyl)-5-(4-hydroxycyclohexyl)pyrimido[4,5-c]isoquinolin-6(5H)-one] | 26.6 |
| CCCCNc1ncc2c3ccc(CN4CCN(C)CC4)cc3c(=O)n([C@H]3CC[C@H](NCCO)C3)c2n1 [Compound 238, 3-(butylamino)-5-((1S,3S)-3-((2-hydroxyethyl)amino)cyclopentyl)-8-((4-methylpiperazin-1-yl)methyl)pyrimido[4,5-c]isoquinolin-6(5H)-one] | 160 |
| CN1CCN(Cc2ccc3c(c2)c(=O)n([C@H]2CC[C@H](OC(N)=O)CC2)c2nc(NCC4CC4)ncc32)CC1 [Compound 59, trans-4-(3-((Cyclopropylmethyl)amino)-8-((4-methylpiperazin-1-yl)methyl)-6-oxopyrimido[4,5-c]isoquinolin-5(6H)-yl)cyclohexyl carbamate] | 292 |
| CN1CCC(n2c(=O)c3cc(CN4CCN(C)CC4)ccc3c3cnc(NCC4CC4)nc32)CC1 [Compound 136] | 320 |
| CCCCNc1ncc2c3ccc(CN4CCN(C)CC4)cc3c(=O)n([C@H]3CC[C@H](C(=O)NC4COC4)CC3)c2n1 [Compound 140, trans-4-(3-(Butylamino)-8-((4-methylpiperazin-1-yl)methyl)-6-oxopyrimido[4,5-c]isoquinolin-5(6H)-yl)-N-(oxetan-3-yl)cyclohexane-1-carboxamide] | 147 |
| CC(C)Nc1ncc2c3ccc(Cl)cc3c(=O)n([C@H]3CC[C@H](O)CC3)c2n1 [Compound 193] | 957 |
| N#CC1CCN(Cc2ccc3c(c2)c(=O)n([C@H]2CC[C@H](O)CC2)c2nc(NCC4CC4)ncc32)CC1 [Compound 204, trans-1-((3-((Cyclopropylmethyl)amino)-5-(4-hydroxycyclohexyl)-6-oxo-5,6-dihydropyrimido[4,5-c]isoquinolin-8-yl)methyl)piperidine-4-carbonitrile] | 57.7 |
| C[C@]1(O)CC[C@H](n2c(=O)c3cc(CN4CCC(N5CCCC5)CC4)ccc3c3cnc(NCC4CC4)nc32)CC1 [Compound 38, trans-3-((Cyclopropylmethyl)amino)-5-(4-hydroxy-4-methylcyclohexyl)-8-((4-(pyrrolidin-1-yl)piperidin-1-yl)methyl)pyrimido[4,5-c]isoquinolin-6(5H)-one] | 33.3 |
| CCC1(CNc2ncc3c4ccc(CN5CCN(C)CC5)cc4c(=O)n([C@H]4CC[C@H](O)CC4)c3n2)CC1 [Compound 22, trans-3-(((1-Ethylcyclopropyl)methyl)amino)-5-(4-hydroxycyclohexyl)-8-((4-methylpiperazin-1-yl)methyl)pyrimido[4,5-c]isoquinolin-6(5H)-one] | 589 |
| CN1CCC(Nc2ccc3c(c2)c(=O)n([C@H]2CC[C@H](O)CC2)c2nc(NCC4CC4)ncc32)CC1 [Compound 189, trans-3-((Cyclopropylmethyl)amino)-5-(4-hydroxycyclohexyl)-8-((1-methylpiperidin-4-yl)amino)pyrimido[4,5-c]isoquinolin-6(5H)-one] | 76.4 |
